Reference: patent US11020375B2, “Edaravone dosage form” (SUZHOU AUZONE BIOLOGICAL TECHNOLOGY CO., LTD, priority 2016, dated 2021)

Key:
[1] = Stability studies in simulated gastrointestinal fluids at various pHs; type: physicochemical
Procedure: Simulated gastrointestinal fluids (without enzymes and bile component) were prepared according to the USP methods. SGF (simulated gastric fluid) 1.2 pH (USP) and SIF (Simulating Intestinal fluid) 6.8 pH (USP) and 7.4 pH. To determine the chemical stability of SD formulations, the solutions in miliQ water was prepared and used. SD formulation was dissolved in aforesaid buffer solutions. Samples were collected at the predetermined time interval and filtered through 0.45 μm PVDF syringe filter. All samples were analysed in triplicate by HPLC.

[2] = Screening drug carrier Soluplus and optimizing solid dispersion: solubility of Edaravone by HPLC; type: physicochemical; settings: 1%-6% w/v carrier solutions, 24 hours at room temperature (FIG. 2)
Procedure: To separate glass vials, 1%, 2%, 3%, 4%, 5% and 6% w/v solutions of different carriers was added, respectively. An excess amount of Edaravone was added to the above mentioned solutions followed by continuous rotation using a mechanical shaker (Axyos Technologies, Brisbane, Australia) throughout the test for 24 hours at room temperature. After reaching equilibrium, each vial was centrifuged at 3000 rpm for 5 min, and excess insoluble Edaravone was discarded by filtration through 0.45 μm PVDF syringe filter. Subsequently, the filtrates were diluted using methanol. The solubility analysis was performed in triplicate by using the previously developed and validated HPLC method.

- stability in biorelevant media ([1]; acidic pH (FIG. 8A)): maintained substantially constant
- stability in biorelevant media ([1]; neutral to basic pH (FIG. 8A)): significant degradation
SMILES: CC1=NN(c2ccccc2)C(=O)C1 [Edaravone, 3-methyl-1-phenyl-2-pyrazol-5-one]
- solubility of Edaravone in Soluplus carrier solutions [2]: solubility improvement in concentration-dependent manner
